According to PubChem BioAssay (NCI):
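These data come from cells grown in 96-well plates and exposed to compound for 48 hours at five concentrations. GI50 is the concentration that inhibits growth by half. The concentration for full growth arrest is given as TGI.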

Legend:
Test in all cases: DTP human tumour cell line panel, 48 h
A498 renal = system: A498 renal
HCT-116 colon = system: HCT-116 colon
HL-60(TB) leukemia = system: HL-60(TB) leukemia
MCF7 breast = system: MCF7 breast
OVCAR-4 ovarian = system: OVCAR-4 ovarian
RPMI-8226 leukemia = system: RPMI-8226 leukemia
RXF 393 renal = system: RXF 393 renal
SF-539 CNS = system: SF-539 CNS
SNB-75 CNS = system: SNB-75 CNS
UACC-257 melanoma = system: UACC-257 melanoma

SMILES | GI50 (A498 renal) | TGI (A498 renal) | GI50 (HCT-116 colon) | TGI (HCT-116 colon) | GI50 (HL-60(TB) leukemia) | TGI (HL-60(TB) leukemia) | GI50 (MCF7 breast) | TGI (MCF7 breast) | GI50 (OVCAR-4 ovarian) | TGI (OVCAR-4 ovarian) | GI50 (RPMI-8226 leukemia) | TGI (RPMI-8226 leukemia) | GI50 (RXF 393 renal) | TGI (RXF 393 renal) | GI50 (SF-539 CNS) | TGI (SF-539 CNS) | GI50 (SNB-75 CNS) | TGI (SNB-75 CNS) | GI50 (UACC-257 melanoma) | TGI (UACC-257 melanoma)
Nc1cc(N)c2nc(-c3ccccc3)c(NCc3ccc(F)cc3)nc2c1 | 16.8 µM | 31 µM | 12.8 µM | > 100 µM | 3.85 µM | > 100 µM | 2.99 µM | > 100 µM | 1.69 µM | 8.08 µM | 2.54 µM | 6.25 µM | 12.3 µM | 27.2 µM | 1.83 µM | 3.54 µM | 2.16 µM | 5.06 µM | 2.02 µM | 4.26 µM
O=C(CCCSc1nc(-c2ccccc2)cc(-c2ccc(Cl)cc2)n1)NO | 1.7 µM | 4.7 µM | 1.04 µM | 13.1 µM | 2.35 µM | 9.26 µM | 2.29 µM | 12.4 µM | 1.12 µM | 14.4 µM | 1.65 µM | 8.42 µM | 0.445 µM | 2.55 µM | 1.61 µM | 4.06 µM | 2.08 µM | 10.4 µM | 2.92 µM | 12.4 µM
Nc1n[nH]c2ccc([C@@H]3Nc4ccc5[nH]ncc5c4[C@H]4C5C=CC(C5)[C@@H]34)cc12 (stereo not given in full) | 0.0876 µM | 0.492 µM | 0.351 µM | 3.33 µM | 0.321 µM | 4.39 µM | 0.14 µM | 19 µM | 1.76 µM | > 90.7 µM | 0.355 µM | 11.5 µM | 0.11 µM | 0.599 µM | 0.271 µM | 1.1 µM | 0.176 µM | 24.8 µM | 12.5 µM | 58.5 µM
CS(=O)(=O)Nc1ccc(N=Cc2c(O)[nH]c3ccccc23)cc1 | > 25 µM | > 25 µM | > 25 µM | > 25 µM | > 25 µM | > 25 µM | > 25 µM | > 25 µM | > 25 µM | > 25 µM | > 25 µM | > 25 µM | > 25 µM | > 25 µM | > 25 µM | > 25 µM | > 25 µM | > 25 µM | > 25 µM | > 25 µM
CN(C(=O)c1ccncc1)c1ccccc1 | – | > 100 µM | – | > 100 µM | – | > 100 µM | – | > 100 µM | – | > 100 µM | – | > 100 µM | – | > 100 µM | – | > 100 µM | – | > 100 µM | – | > 100 µM
CSC1(SC2=NCCN2)SC2(NCCN2)S1 | – | 27.9 µM | – | 31.7 µM | – | 55.9 µM | – | 12.8 µM | – | 44.6 µM | – | 13.4 µM | – | 20.4 µM | – | 56.5 µM | – | 32.2 µM | – | 46.6 µM
Cn1cc(-c2ccc(-c3cn(C)c4ccc(Cl)cc34)s2)c2cc(Cl)ccc21 | > 100 µM | > 100 µM | > 100 µM | > 100 µM | > 100 µM | > 100 µM | > 100 µM | > 100 µM | > 100 µM | > 100 µM | > 100 µM | > 100 µM | 70.3 µM | > 100 µM | > 100 µM | > 100 µM | > 100 µM | > 100 µM | > 100 µM | > 100 µM
O=C(CN1CCN(c2ccccc2)CC1)N1CCN(c2nnc(-c3ccc(Cl)cc3)c(-c3ccc(Cl)cc3)n2)CC1 | 9.67 µM | 78 µM | 4.26 µM | 16.2 µM | 3.16 µM | 19.4 µM | 3.08 µM | 19.6 µM | 11 µM | > 100 µM | 3.88 µM | 20 µM | 9.41 µM | 63.3 µM | 5.91 µM | > 100 µM | 14 µM | 71.1 µM | 14.7 µM | > 100 µM
c1ccc(CSc2nnc3c4ccccc4c4ccccc4c3n2)cc1 | – | > 100 µM | – | > 100 µM | – | > 100 µM | – | > 100 µM | – | > 96.3 µM | – | > 100 µM | – | > 79.5 µM | – | > 100 µM | – | 21.6 µM | – | > 100 µM
Cc1ccc2c(c1)C(=O)c1c-2n(CCCBr)c(=O)c2cc([N+](=O)[O-])ccc12 | 51.7 µM | > 100 µM | 18.7 µM | > 100 µM | 18.3 µM | > 100 µM | 4.46 µM | > 100 µM | > 100 µM | > 100 µM | 19.2 µM | > 100 µM | > 100 µM | > 100 µM | > 100 µM | > 100 µM | 48.1 µM | > 100 µM | > 100 µM | > 100 µM
COc1ccc2c(c1)C(C)Cc1c(Cl)nc(C)nc1N2C (stereo not given) | 6.79 µM | 25 µM | 1.84 µM | 16.4 µM | 2.54 µM | > 100 µM | 0.791 µM | 32.7 µM | 4.94 µM | > 100 µM | 4.14 µM | 36 µM | 2.78 µM | 20.8 µM | 1.68 µM | 6.11 µM | 1.94 µM | 9.04 µM | 13.1 µM | 37.8 µM
COc1cc(C2CC(c3ccc(N(C)C)cc3)=NN2C(C)=O)cc(OC)c1OC (stereo not given) | 2.18 µM | > 47.4 µM | 1.22 µM | > 45.4 µM | 7.94 µM | > 25.1 µM | 0.577 µM | > 100 µM | 10.9 µM | > 100 µM | 3.77 µM | > 39.3 µM | 2.73 µM | > 22.9 µM | 1.35 µM | 5.34 µM | 1.43 µM | > 100 µM | > 69.5 µM | > 100 µM
Cc1[nH]c2ccccc2c1CCNCc1ccc(/C=C/C(=O)NO)cc1 | < 0.01 µM | 0.022 µM | < 0.01 µM | 0.0142 µM | < 0.01 µM | 3.16 µM | < 0.01 µM | 0.795 µM | 0.015 µM | 0.0585 µM | < 0.0123 µM | 0.595 µM | < 0.0104 µM | 0.025 µM | 0.0249 µM | 2.11 µM | < 0.0147 µM | 2.8 µM | < 0.01 µM | 0.0447 µM
O=C(N/N=C/c1cc([N+](=O)[O-])ccc1O)c1cccc2ccccc12 | 2.71 µM | 29.3 µM | 2.56 µM | > 100 µM | 2.27 µM | 6.02 µM | 2.49 µM | 13.4 µM | 1.2 µM | 26.2 µM | 3.35 µM | 62.2 µM | 4.14 µM | 35.1 µM | 3.8 µM | 24.2 µM | 6.2 µM | 44.7 µM | 2.7 µM | 26.9 µM
Cn1ccnc1C(=O)/C=C/c1ccc(CC(=O)Nc2ccc(C(F)(F)F)cc2)cc1 | 4.17 µM | 11.8 µM | 2.4 µM | 4.94 µM | 1.8 µM | 9.82 µM | 1.02 µM | 14.5 µM | 3.1 µM | > 16.7 µM | 0.869 µM | 5.17 µM | 2.72 µM | 5.49 µM | 2.21 µM | 4.45 µM | 2.5 µM | 8.01 µM | 8.03 µM | > 16.7 µM
